# Reference: the supplement of paper PMC10307832
# Legend:
# Test in all cases: relative viability (nuclei count vs DMSO), 5 days (fraction); higher = more cells survive
# [1] = compound: CCN1C(=O)C2=CC(=C(N=C2N(C1=O)C3CC3)N)C(=O)N + CC(=O)Nc1cccc(-n2c(=O)n(C3CC3)c(=O)c3c(Nc4ccc(I)cc4F)n(C)c(=O)c(C)c32)c1 [Trametinib] (partner 0.02 µM)
# In short: (§1)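 Relative viability was taken as the ratio of nuclei in treated wells to nuclei in vehicle wells. Lung cancer cell lines in 1536-well plates received compounds by pin tool one day after seeding, either one drug alone or a fixed anchor-drug dose plus five library-drug doses (not always all listed) in √10 steps. Nuclei were counted on 4× images after 5 days of treatment, and values are medians of duplicate plates.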
# [2] = compound: CCN1C(=O)C2=CC(=C(N=C2N(C1=O)C3CC3)N)C(=O)N + CC(=O)c1c(C)c2cnc(Nc3ccc(N4CCNCC4)cn3)nc2n(C2CCCC2)c1=O [Palbociclib] (partner 0.5 µM)
# In short: as §1
# [3] = compound: CCN1C(=O)C2=CC(=C(N=C2N(C1=O)C3CC3)N)C(=O)N + CCNC(=O)c1noc(-c2cc(C(C)C)c(O)cc2O)c1-c1ccc(CN2CCOCC2)cc1 [Luminespib] (partner 0.01 µM)
# In short: as §1
# [4] = compound: CCN1C(=O)C2=CC(=C(N=C2N(C1=O)C3CC3)N)C(=O)N + CS(=O)(=O)CCNCc1ccc(-c2ccc3ncnc(Nc4ccc(OCc5cccc(F)c5)c(Cl)c4)c3c2)o1 [Lapatinib] (partner 2 µM)
# In short: as §1
# [5] = compound: CCN1C(=O)C2=CC(=C(N=C2N(C1=O)C3CC3)N)C(=O)N + CS(=O)(=O)N1CCN(Cc2cc3nc(-c4cccc5[nH]ncc45)nc(N4CCOCC4)c3s2)CC1 [Pictilisib] (partner 1 µM)
# In short: as §1
Cell Line,relative viability ([1]; first compound 0.253 µM),relative viability ([1]; first compound 0.8 µM),relative viability ([1]; first compound 2.53 µM),relative viability ([1]; first compound 8 µM),relative viability ([2]; first compound 0.253 µM),relative viability ([2]; first compound 0.8 µM),relative viability ([2]; first compound 2.53 µM),relative viability ([2]; first compound 8 µM),relative viability ([3]; first compound 0.253 µM),relative viability ([3]; first compound 0.8 µM),relative viability ([3]; first compound 2.53 µM),relative viability ([3]; first compound 8 µM),relative viability ([4]; first compound 0.253 µM),relative viability ([4]; first compound 0.8 µM),relative viability ([4]; first compound 2.53 µM),relative viability ([4]; first compound 8 µM),relative viability ([5]; first compound 0.253 µM),relative viability ([5]; first compound 0.8 µM),relative viability ([5]; first compound 2.53 µM),relative viability ([5]; first compound 8 µM)
NCI-H1395,1.13,0.94,1.04,1.07,0.707,0.694,0.603,0.578,0.711,0.599,0.747,0.619,1.04,0.915,1.1,0.893,0.611,0.583,0.636,0.63
NCI-H1437,0.609,0.468,0.527,0.406,0.337,0.323,0.315,0.245,1.1,1.06,1.1,1.16,0.818,0.794,0.829,0.838,0.433,0.416,0.445,0.465
NCI-H1650,0.572,0.571,0.563,0.611,0.315,0.364,0.346,0.313,0.185,0.196,0.162,0.186,0.337,0.815,0.746,0.904,0.501,0.547,0.521,0.589
NCI-H1651,0.784,0.835,0.778,0.819,0.471,0.489,0.512,0.501,0.856,0.813,0.874,0.885,0.749,0.78,0.936,0.834,0.552,0.581,0.461,0.595
NCI-H1666,0.906,0.778,0.83,0.815,0.683,0.654,0.629,0.65,–,1.02,1.07,1.05,0.831,0.495,0.633,0.736,0.42,0.377,0.391,0.359
NCI-H1734,0.742,0.593,0.609,0.74,0.346,0.328,0.363,0.36,0.67,0.215,0.191,0.233,1.08,1.07,1.03,1.1,0.456,0.495,0.44,0.473
NCI-H1755,0.771,0.762,0.746,0.716,0.443,0.453,0.436,0.44,0.455,0.412,0.528,0.51,0.999,1.09,0.779,1.02,0.431,0.405,0.452,0.488
NCI-H1792,0.457,0.332,0.346,0.39,0.674,0.631,0.668,0.653,0.586,0.4,0.541,0.419,0.993,0.859,1.1,0.769,0.312,0.28,0.355,0.3
